{"source": "patent US20220322671A1", "about": "“METHODS TO REDUCE CONTAMINATION, BIOFILM AND FOULING FROM WATER SYSTEMS, SURFACES, AND PRODUCTS” (Aequor, Inc., priority 2019, published 2022)", "key": {"L. fermentum (ATCC 9338)": {"test_system": "L. fermentum (ATCC 9338)", "experiment": "MIC broth microdilution, L. fermentum", "type": "cell-based, Lactobacillus fermentum"}, "P. aeruginosa NR-31041": {"test_system": "P. aeruginosa NR-31041", "experiment": "MIC broth microdilution, P. aeruginosa", "type": "cell-based, Pseudomonas aeruginosa"}, "MRSA ATCC 33591": {"test_system": "MRSA ATCC 33591", "experiment": "MIC broth microdilution, MRSA", "type": "cell-based, S. aureus Methicillin-Resistant"}, "[1]": {"test_system": "C. marina ATCC 25374 biofilm", "experiment": "MBEC biofilm eradication assay, C. marina", "type": "cell-based"}, "C. marina ATCC 25374 [2]": {"test_system": "C. marina ATCC 25374", "experiment": "MIC broth microdilution, C. marina", "type": "cell-based"}, "C. marina ATCC 25374 [3]": {"test_system": "C. marina ATCC 25374", "experiment": "Minimum bactericidal concentration, C. marina", "type": "cell-based"}, "A. niger ATCC 16888": {"test_system": "A. niger ATCC 16888", "experiment": "MIC broth microdilution, A. niger", "type": "cell-based"}, "[4]": {"test_system": "Heterochlorella luteoviridis cf. (SAG 2203)", "experiment": "Algae growth inhibition", "type": "cell-based", "conditions": "1% concentration, 14 days, absorbance 750 nm", "description": "The molecules (SDBS, SDS, SEHS, and DBSA) were added to the growth culture medium of algae Heterochlorella luteoviridis cf. (SAG 2203.) Algae was grown in 50 ml tubes at 28 °C for 14 days. Absorbance (optical density) was measured at 750 nm in a spectrophotometer and used to determine concentration to inhibit the growth of algae."}, "S. aureus ATCC 12600": {"test_system": "S. aureus ATCC 12600", "experiment": "MIC broth microdilution, S. aureus", "type": "cell-based"}, "E. coli ATCC 11775": {"test_system": "E. coli ATCC 11775", "experiment": "MIC broth microdilution, E. coli", "type": "cell-based"}, "[5]": {"conditions": "24- and 48-hour biofilm, 30 min exposure"}, "[6]": {"conditions": "C. marina ATCC 25374, materials in water"}}, "note": "“And” between values parts separate entries of the source, which are not always exact repeats. Identical values can stand only once. Like-named read-outs stand apart in the source and are kept apart here."}
{"molecule": "CCCCCCCCCCCCc1ccc(S(=O)(=O)O)cc1", "note": "[DBSA, 4-Dodecylbenzenesulfonic acid]", "values": [{"measurement": "Minimum Inhibitory Concentration (MIC) (% v/v) M07-09 Method, L. fermentum", "setting": "L. fermentum (ATCC 9338)", "result": 0.0150, "unit": "% v/v"}, {"measurement": "Minimum Inhibitory Concentration (MIC) M07-09 Method, PA", "setting": "P. aeruginosa NR-31041; P. aeruginosa NR-31041", "result": 0.500, "unit": "% v/v"}, {"measurement": "Minimum Inhibitory Concentration (MIC) M07-09 Method, MRSA", "setting": "MRSA ATCC 33591", "result": 0.003, "unit": "% v/v"}, {"measurement": "MBEC ASTM E2799-12 Method (% v/v)", "setting": "[1]; [5]", "result": ">0.5", "unit": "% v/v"}, {"measurement": "% Biofilm Removal Efficacy", "setting": "[1]; 48-hour biofilm, 0.0078 % v/v", "result": 73.64, "unit": "%"}, {"measurement": "Log Reduction", "setting": "[1]; 48-hour biofilm, 0.0078 % v/v", "result": 0.58}, {"measurement": "% Biofilm Removal Efficacy", "setting": "[1]; 48-hour biofilm, 0.0156 % v/v", "result": 86.36, "unit": "%"}, {"measurement": "Log Reduction", "setting": "[1]; 48-hour biofilm, 0.0156 % v/v", "result": 0.87}, {"measurement": "% Biofilm Removal Efficacy", "setting": "[1]; 48-hour biofilm, 0.0313 % v/v", "result": 96.27, "unit": "%"}, {"measurement": "Log Reduction", "setting": "[1]; 48-hour biofilm, 0.0313 % v/v", "result": 1.43}, {"measurement": "% Biofilm Removal Efficacy", "setting": "[1]; 48-hour biofilm, 0.0630 % v/v", "result": 98.27, "unit": "%"}, {"measurement": "Log Reduction", "setting": "[1]; 48-hour biofilm, 0.0630 % v/v", "result": 1.76}, {"measurement": "Removal of existing 48-hour biofilm (up to)", "setting": "[1]; 48-hour biofilm, best of the tested concentrations", "result": "≤ 99", "unit": "%"}, {"measurement": "Growth of C. marina (in words)", "setting": "C. marina ATCC 25374 [2]; C. marina", "result": "inhibited growth"}, {"measurement": "Minimum Inhibitory Concentration (% v/v) M07-09 Method", "setting": "C. marina ATCC 25374 [2]; [6]", "result": "< 0.0039", "unit": "% v/v"}, {"measurement": "% Reduction Compared to Control", "setting": "C. marina ATCC 25374 [3]; C. marina ATCC 25374, killing", "result": 99.9999, "unit": "%"}, {"measurement": "Minimum Bactericidal Concentration (% v/v) CLSI M26-A Method", "setting": "C. marina ATCC 25374 [3]; [6]", "result": 0.0078, "unit": "% v/v"}, {"measurement": "CFU/ml", "setting": "C. marina ATCC 25374 [3]; C. marina ATCC 25374, detection limit <1E+02", "result": "<1E+02^1 CFU/ml"}, {"measurement": "Minimum Inhibitory Concentration (MIC) M07-09 Method, AN", "setting": "A. niger ATCC 16888; A. niger ATCC 16888", "result": 0.003, "unit": "% v/v"}, {"measurement": "Algae growth", "setting": "[4]", "result": "inhibited"}, {"measurement": "Minimum Inhibitory Concentration (MIC) M07-09 Method, SA", "setting": "S. aureus ATCC 12600; S. aureus ATCC 12600", "result": 0.003, "unit": "% v/v"}, {"measurement": "Minimum Inhibitory Concentration (MIC) M07-09 Method, EC", "setting": "E. coli ATCC 11775; E. coli ATCC 11775", "result": 0.100, "unit": "% v/v"}]}
{"molecule": "CCCCC(CC)COS(=O)(=O)[O-].[Na+]", "note": "(stereo not drawn) [SEHS, sodium 2-ethylhexylsulfate]", "values": [{"measurement": "Minimum Inhibitory Concentration (MIC) M07-09 Method, PA", "setting": "P. aeruginosa NR-31041", "result": 0.500, "unit": "% v/v"}, {"measurement": "MBEC ASTM E2799-12 Method (% v/v)", "setting": "[1]; [5]", "result": ">0.5", "unit": "% v/v"}, {"measurement": "Growth of C. marina (in words)", "setting": "C. marina ATCC 25374 [2]", "result": "inhibited growth"}, {"measurement": "Minimum Inhibitory Concentration (% v/v) M07-09 Method", "setting": "C. marina ATCC 25374 [2]", "result": 0.0313, "unit": "% v/v"}, {"measurement": "% Reduction Compared to Control", "setting": "C. marina ATCC 25374 [3]", "result": 99.9999, "unit": "%"}, {"measurement": "CFU/ml", "setting": "C. marina ATCC 25374 [3]", "result": "<1E+02^1 CFU/ml"}, {"measurement": "Minimum Bactericidal Concentration (% v/v) CLSI M26-A Method", "setting": "C. marina ATCC 25374 [3]", "result": 0.0630, "unit": "% v/v"}, {"measurement": "Algae growth", "setting": "[4]", "result": "inhibited"}, {"measurement": "Minimum Inhibitory Concentration (MIC) M07-09 Method, SA", "setting": "S. aureus ATCC 12600", "result": 0.280, "unit": "% v/v"}]}
{"molecule": "CCCCOP(=O)(O)OCCCC", "note": "[DBP, dibutyl phosphate]", "values": [{"measurement": "% Reduction Compared to Control", "setting": "[1]", "result": "99.9999% and 99.999%"}, {"measurement": "Log Reduction", "setting": "[1]", "result": 5.5}, {"measurement": "MBEC ASTM E2799-12 Method (% v/v)", "setting": "[1]", "result": 0.5, "unit": "% v/v"}, {"measurement": "Growth of C. marina (in words)", "setting": "C. marina ATCC 25374 [2]", "result": "inhibited growth"}, {"measurement": "Minimum Inhibitory Concentration (% v/v) M07-09 Method", "setting": "C. marina ATCC 25374 [2]", "result": 0.1250, "unit": "% v/v"}, {"measurement": "% Reduction Compared to Control", "setting": "C. marina ATCC 25374 [3]", "result": 99.9999, "unit": "%"}, {"measurement": "CFU/ml", "setting": "C. marina ATCC 25374 [3]", "result": "<1E+02^1 CFU/ml"}, {"measurement": "Minimum Bactericidal Concentration (% v/v) CLSI M26-A Method", "setting": "C. marina ATCC 25374 [3]", "result": 0.5000, "unit": "% v/v"}]}
{"molecule": "CCCCCCCCCCCCOS(=O)(=O)[O-].[Na+]", "note": "[SDS, sodium dodecyl sulfate]", "values": [{"measurement": "Minimum Inhibitory Concentration (MIC) M07-09 Method, PA", "setting": "P. aeruginosa NR-31041", "result": 0.500, "unit": "% v/v"}, {"measurement": "Minimum Inhibitory Concentration (MIC) M07-09 Method, MRSA", "setting": "MRSA ATCC 33591", "result": 0.028, "unit": "% v/v"}, {"measurement": "Minimum Inhibitory Concentration (MIC) M07-09 Method, AN", "setting": "A. niger ATCC 16888", "result": 0.030, "unit": "% v/v"}, {"measurement": "Algae growth", "setting": "[4]", "result": "inhibited"}, {"measurement": "Minimum Inhibitory Concentration (MIC) M07-09 Method, SA", "setting": "S. aureus ATCC 12600", "result": 0.028, "unit": "% v/v"}, {"measurement": "Minimum Inhibitory Concentration (MIC) M07-09 Method, EC", "setting": "E. coli ATCC 11775", "result": 0.100, "unit": "% v/v"}]}
